Measured values published in patent US7989466B2, “Methods to inhibit or augment an inflammatory response” (Cambridge Enterprise Limited, priority 1999, dated 2011).
Positions of bridges follow the written chain, without caps; N, C: chain ends. Non-standard residues stand in square brackets, D forms with d. Residues, ends and D or L forms follow the SMILES beside them.

What was measured:
[1] = Plasma concentration after a single intraperitoneal dose; assay type: in vivo; conditions: ip, 24 hours after a single intraperitoneal dose of 1 mg in 250 μL saline
Procedure: For example, to prepare a peptide 3 derivative, peptide 3(3-12)[MCP-1] was modified according to Jameson et al. (Nature, 368, 744 (1994)), which yielded CRD-Cys13Leu4Ile11peptide 3(3-12)[MCP-1] (FIG. 3). CRD-Cys13Leu4Ile11peptide 3(3-12)[MCP-1], which had very similar properties to peptide 3(1-12)[MCP-1] […] CRD-Cys13Leu4Ile11peptide 3(3-12)[MCP-1] was also resistant to hydrolysis in vivo and allowed therapeutically useful plasma concentrations to be achieved (>10 μM 24 hours after a single intraperitoneal dose of 1 mg of CRD-Cys13Leu4Ile11peptide 3(3-12)[MCP-1] in 250 μL saline).

[2] = system: splenocyte recall response to Ova; test: Splenocyte recall cultures from ovalbumin-challenged treated mice; assay type: in vivo, mouse; set-up: IL-4, Avg. of Group: unit not given here
Procedure: In another study, BALB/c mice were sensitized with 0.1 mg of ovalbumin (OVA) or PBS (diluent control) intraperitoneally. Eight days following initial sensitization mice were challenged intratracheally with 1% ovalbumin or PBS (diluent control). On days fifteen, eighteen, twenty one, and thirty four, mice were challenged intratracheally with 2% ovalbumin of PBS. […] Thirty minutes following treatment, mice were challenged intratracheally with 2% OVA and sacrificed 3 hours after OVA challenge. […] On day 34 mice were re-challenged intratracheally with either 2% OVA or PBS. Mice were sacrificed 3 hours after challenge. Following sacrifice on day 21 or 34, lungs were collected for histopathology and for isolation of cells for total cell counts and identification by FACS analysis. Serum was collected for IgE and IL-4 levels. Spleens were collected for cytokine and antibody recall responses.

in vivo = conditions: female, Sprague-Dawley, rat, iv, 8.8 mg; for dose excreted: rats, 8.8 mg i.v.
HIV (IIIb) = test: HIV infectivity of Jurkat T-cells, p24gag immunofluorescence; assay type: cell-based; conditions: 100 μM peptide (SDF1α 100 ng/ml), about 48 hours after infection
Procedure: (a) HIV (IIIb) replication in cultures of Jurkat T-cells was estimated by measuring the supernatant reverse transcriptase activity two weeks after infection. Peptide 2 and peptide 3 were at 100 μM final concentration and SDF-1α was added at 100 ng/ml final concentration 1 hour prior to exposure to virus. Values are mean±SEM from 12 wells, expressed as the percentage of the reverse transcriptase activity in the supernatant from the control wells. The experiment shown is typical of six separate experiments. (b) HIV (IIIb) infectivity of Jurkat T-cells was estimated by staining cells treated identically to those in (a) for p24^gag expression. Values are mean±S.D. percentage of cells stained for p24gag averaged from 12 fields of view from each of two separate wells. (c) HIV (MN) infectivity of THP-1 cells measured as in (b). […] Both fields of view contain 40-50 cells (assessed by Hoeschst 33345 staining viewed under UV illumination conditions).
Jurkat cells following HIV infection were attached to 8-well chamber slides (Becton-Dickinson) by spinning the slides using a plate rotor in a Labofuge centrifuge (Haeraeus) at 3,000×g for 5 minutes. […] A threshold was then applied to each image which was the lowest threshold that detected <1% of the pixels of an image of uninfected cells stained under identical conditions. The number of objects exceeding this threshold in each field of view were counted. […]

| Molecule | level at time molar at 24 h [1] [µM] | IL-4, Avg. of Group ([2]; Group 5: Ova days 8, 15, 18, 21, peptide BID 14 days, sacrifice day 34 (No recent Ova challenge), 0 μg/ml Ova) | Total IgE (1 week splenocyte cultures) ([2]; Group 5, 5 μg/ml Ova) [ng/mL] | Total IgE (1 week splenocyte cultures), Avg. ([2]; Group 5, 5 μg/ml Ova) | half-life (in vivo) [min] | dose excreted (in vivo; administered dose recovered in urine over 24 hours) [%] | dose excreted (in vivo; dose excreted in urine over the first two hours) [%] | inhibition of viral infectivity, p24gag staining, Jurkat T-cells (HIV (IIIb)) |
| --- | --- | --- | --- | --- | --- | --- | --- | --- |
| CC[C@@H](C)[C@H]1NC(=O)[C@@H](CCC(N)=O)NC(=O)[C@H](N)CSSC[C@H](C(N)=O)NC(=O)[C@@H](CC(C)C)NC(=O)[C@@H](CC(=O)O)NC(=O)[C@H]2CCCN2C(=O)[C@@H](CCCCN)NC(=O)[C@@H](CCC(N)=O)NC(=O)[C@@H](CCCCN)NC(=O)[C@@H](Cc2c[nH]c3ccccc23)NC1=O (H-[dC][dQ][dI][dW][dK][dQ][dK][dP][dD][dL][dC]-NH2; disulfide 1-11; N-terminus assumed) | > 10 | 8.05 | 0.082 | 0.021 | ~10 | ~70 | > 55 |  |
| EICADPKQKWVQ [peptide 3(1-12)[MCP-1]] |  |  |  |  |  |  |  | ineffective |
